Source: patent publication US20080292721A1, “Bioactive acid agrichemical compositrions and use thereof” (priority 2007, published 2008)

Tested on: E. amylovora 153N
Test: Fire blight on crabapples
Format: in vivo
Set-up: Blossom Incidence / Shoot Incidence: unit not given here
Details: for Blossom Incidence: mean of counts; for Canker Size / Shoot Incidence: Day 63
Experimental: A study of the bioefficacy of the various agrichemical compositions, including bioactive acid solutions and blends thereof with an antibiotic agrichemical, were evaluated to assess their bioefficacy against fire blight on crabapples. The study was conducted on 5 year old Snow Drift crabapple trees, with each of the compositions being applied to ten trees in two-subplots of five trees, four different times: at 100% bloom-day 1, a second application was made on day 4, a third on day 11 and a final treatment on day 19. The trees were inoculated with E. amylovora […] at a concentration of 4×10^6 cells per milliliter on day 1, following drying of the treatment, with the inoculation being repeated on day 13. Evaluation for fire blight was completed on 100 blossoms for each of the subplots on day 12, day 19 and day 27. Additionally, the incidence of shoot infection and the length of […] evaluated on day 63. The test compositions were prepared by forming solutions of the bioactive agents. Two different dilutions of the MI2 bioactive were evaluated, the first employing 94.46 ml/gallon (25 ml/l) of water (5 ppm of each metal) and the second 188.9 ml/gallon (50 ml/l) of water (10 ppm of each metal). […] Finally, copper hydroxide was diluted at a rate of 1 lb/gallon (119.8 g/l). Each of the compositions and blends were spray applied at a rate of 50 gallons (189.3 l) pre acre. The results are presented as the mean of the counts.

[H]/N=C(/N)N[C@H]1[C@H](O)[C@@H](O)[C@H](O[C@@H]2O[C@@H](C)[C@](O)(C=O)[C@H]2O[C@@H]2O[C@@H](CO)[C@H](O)[C@@H](O)[C@@H]2NC)[C@@H](N/C(N)=N\[H])[C@@H]1O [streptomycin]
Blossom Incidence (Day 12, rate 0.49 lb/a): 1.8 | Blossom Incidence (Day 19, rate 0.49 lb/a): 4.8 | Blossom Incidence (Day 27, rate 0.49 lb/a): 3.09 | Canker Size (rate 0.49 lb/a): 0.0 cm | Shoot Incidence (rate 0.49 lb/a): 1.2

[Cu+2].[OH-].[OH-] [copper hydroxide]
Blossom Incidence (Day 12, rate 5 lbs/a (2.27 kg/a)): 3.1 | Blossom Incidence (Day 19, rate 5 lbs/a (2.27 kg/a)): 2.2 | Blossom Incidence (Day 27, rate 5 lbs/a (2.27 kg/a)): 9.0 | Canker Size (rate 5 lbs/a (2.27 kg/a)): 0.0 cm | Shoot Incidence (rate 5 lbs/a (2.27 kg/a)): 1.0
